Melting point, maximal fold induction and EC (1.5-fold) data for 20 compounds are collected here from patent US9914722B2, “Compounds for treating spinal muscular atrophy” (PTC Therapeutics Inc., priority 2012, dated 2018).

Where only a bound is given, the exact number is not on record here.

For one data set, the system named is Smn protein. As to the kind of experiment: Smn protein assay (Smn HTRF) in cultured cells. The conditions noted are these: Homo sapiens, Fibroblast, GM03813 SMA Type 1 patient fibroblasts, 48 hours, HTRF; for maximal fold induction: 7-point concentration data, relative to vehicle, read-out: maximum fold (Fold) increase of Smn protein; for EC (1.5-fold): concentration producing 1.5 times Smn protein vs DMSO vehicle, read-out: EC1.5x for Smn protein expression. The class given is cell-based, human. The gist of the method:
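SMA patient fibroblasts (5,000/well) were exposed to a 7-point, 3.16-fold compound dilution series for 48 hours at 37° C, in triplicate. Lysates were read by HTRF with anti-SMN d2/kryptate at 665/620 nm. Blank-corrected signal was expressed as fold over DMSO vehicle, giving the EC1.5x and the maximum fold increase.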
For orientation: In TR-FRET formats the signal depends on donor and acceptor labels being close together.

Data set [1] has as its system full length SMN2 minigene mRNA containing SMN2 exon 7 (SMN2-A minigene). The data set can be described thus: SMN2 minigene mRNA splicing RT-qPCR assay in cultured cells. The note with it: Homo sapiens, HEK293-H; HEK293H cells stably transfected with SMN2-A minigene, 24 hours, 7-point concentration curve; concentration giving 1.5-fold SMN2 full length mRNA vs vehicle; read-out: EC1.5x for production of full length SMN2 mRNA. The class given is cell-based, human. In outline:
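HEK293H cells stably carrying the SMN2-A minigene were treated 24 h at 37 °C with a 7-point, 3.16-fold test compound series, in duplicate. Multiplex RT-qPCR measured exon 7-containing minigene FL mRNA, normalized to GAPDH and expressed relative to vehicle; EC1.5x is the concentration giving 1.5-fold FL mRNA.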

For the compound `Cc1ccn2cc(-c3cc(=O)c4cc(N5CCN[C@H](C)C5)ccc4o3)nc2c1` [Cpd 29, 2-(7-methylimidazo[1,2-a]pyridin-2-yl)-6-[(3R)-3-methylpiperazin-1-yl]-4H-chromen-4-one], the melting point fell in the range of 150 to 155 °C. In the data set on Smn protein, the maximal fold induction was in the range of 1.35 to 1.5 and the EC (1.5-fold) is 3 to 10 µM. For the same compound, the EC (1.5-fold) in data set [1] fell in the range of 3 to 30 µM.

In turn, `C[C@H]1CN(c2ccc3oc(-c4cccc(C(F)(F)F)c4)cc(=O)c3c2)CCN1` [Cpd 78, 6-[(3S)-3-methylpiperazin-1-yl]-2-[3-(trifluoromethyl)phenyl]-4H-chromen-4-one] showed a melting point of 150 to 152 °C. In the data set with Smn protein, the maximal fold induction was > 1.65 and the EC (1.5-fold) was ≤ 0.3 µM. The EC (1.5-fold) in data set [1] is ≤ 0.1 µM.

Regarding `CC1(C)CN(c2ccc3oc(-c4cccnc4)cc(=O)c3c2)CCN1` [Cpd 10, 6-(3,3-dimethylpiperazin-1-yl)-2-(pyridin-3-yl)-4H-chromen-4-one], the melting point fell in the range of 140 to 142 °C. Further, the maximal fold induction in the data set with Smn protein was 1.35 to 1.5. The EC (1.5-fold) in data set [1] fell in the range of 1 to 3 µM.

Consider `COc1cc(F)c(-c2cc(=O)c3cc(N4CCN[C@@H](C)C4)ccc3o2)cc1OC` [Cpd 46, 2-(2-fluoro-4,5-dimethoxyphenyl)-6-[(3S)-3-methylpiperazin-1-yl]-4H-chromen-4-one], for which the melting point fell in the range of 179 to 181 °C. For the same compound, in the data set with Smn protein, the maximal fold induction was in the range of 1.5 to 1.65 and the EC (1.5-fold) fell in the range of 1 to 3 µM. Moreover, the EC (1.5-fold) in data set [1] was in the range of 0.3 to 1 µM.

Compound `CN1CCN(c2ccc3oc(-c4ccccn4)cc(=O)c3c2)CC1` [Cpd 12, 6-(4-methylpiperazin-1-yl)-2-(pyridin-2-yl)-4H-chromen-4-one] returned a melting point of 150 to 152 °C. Besides, the maximal fold induction in the data set on Smn protein is ≤ 1.2. Besides, the EC (1.5-fold) in data set [1] fell in the range of 3 to 30 µM.

`COc1ccc(-c2cc(=O)c3cc(N4C[C@@H](C)N[C@@H](C)C4)ccc3o2)cc1Cl` [Cpd 60, 2-(3-chloro-4-methoxyphenyl)-6-[(3R,5S)-3,5-dimethylpiperazin-1-yl]-4H-chromen-4-one] displayed a melting point of 176 to 178 °C. In addition, in the data set on Smn protein, the maximal fold induction was > 1.65 and the EC (1.5-fold) lay in the range of 1 to 3 µM. For the same compound, the EC (1.5-fold) in data set [1] lay within 0.1 to 0.3 µM.

Regarding `COc1ccc(-c2cc(=O)c3cc(N4CCNCC4)ccc3o2)cc1F` [Cpd 37, 2-(3-fluoro-4-methoxyphenyl)-6-(piperazin-1-yl)-4H-chromen-4-one], the melting point was in the range of 178 to 180 °C. Further, in the data set on Smn protein, the maximal fold induction fell in the range of 1.35 to 1.5 and the EC (1.5-fold) fell in the range of 1 to 3 µM. Further, the EC (1.5-fold) in data set [1] was 0.1 to 0.3 µM.

Turning to `O=c1cc(-c2cn3ccccc3n2)oc2ccc(N3CCCNCC3)cc12` [Cpd 18, 6-(1,4-diazepan-1-yl)-2-(imidazo[1,2-a]pyridin-2-yl)-4H-chromen-4-one], the melting point was in the range of 198 to 200 °C. Also, in the data set on Smn protein, the maximal fold induction was > 1.65 and the EC (1.5-fold) was 3 to 10 µM. Further, the EC (1.5-fold) in data set [1] was 3 to 30 µM.

`COc1ccc(-c2cc(=O)c3cc(N4CCNCC4)ccc3o2)cn1` [Cpd 55, 2-(6-methoxypyridin-3-yl)-6-(piperazin-1-yl)-4H-chromen-4-one] returned a melting point of 165 to 170 °C. Moreover, in the data set with Smn protein, the maximal fold induction was in the range of 1.2 to 1.35. Moreover, the EC (1.5-fold) in data set [1] was 0.3 to 1 µM.

Turning to `Cc1ccn2cc(-c3cc(=O)c4cc(N5C[C@@H](C)N[C@@H](C)C5)ccc4o3)nc2c1` [Cpd 30, 6-[(3R,5S)-3,5-dimethylpiperazin-1-yl]-2-(7-methylimidazo[1,2-a]pyridin-2-yl)-4H-chromen-4-one], the melting point was in the range of 102 to 104 °C. In the data set on Smn protein, the maximal fold induction is 1.2 to 1.35. The EC (1.5-fold) in data set [1] lay within 1 to 3 µM.

Consider `CCOc1ccc(-c2cc(=O)c3cc(N4CCN[C@H](C)C4)ccc3o2)cc1` [Cpd 44, 2-(4-ethoxyphenyl)-6-[(3R)-3-methylpiperazin-1-yl]-4H-chromen-4-one], for which the melting point lay in the range of 92 to 94 °C. In the data set with Smn protein, the maximal fold induction was ≤ 1.2. Moreover, the EC (1.5-fold) in data set [1] was 1 to 3 µM.

In turn, `COc1cc(F)c(-c2cc(=O)c3cc(N4CCN[C@H](C)C4)ccc3o2)cc1OC` [Cpd 48, 2-(2-fluoro-4,5-dimethoxyphenyl)-6-[(3R)-3-methylpiperazin-1-yl]-4H-chromen-4-one] registered a melting point of 180 to 182 °C. Besides, in the data set with Smn protein, the maximal fold induction lay in the range of 1.5 to 1.65 and the EC (1.5-fold) lay within 1 to 3 µM. Moreover, in data set [1], the EC (1.5-fold) was in the range of 1 to 3 µM.

For the compound `COc1ccc(-c2cc(=O)c3cc(N4CCNCC4)ccc3o2)cc1OC` [Cpd 20, 2-(3,4-dimethoxyphenyl)-6-(piperazin-1-yl)-4H-chromen-4-one], the melting point lay within 177 to 179 °C. In addition, in the data set with Smn protein, the maximal fold induction was > 1.65 and the EC (1.5-fold) was 0.3 to 1 µM. Besides, the EC (1.5-fold) in data set [1] is ≤ 0.1 µM.

On to `CC(C)Oc1ccc(-c2cc(=O)c3cc(N4CCN[C@@H](C)C4)ccc3o2)cc1` [Cpd 50, 6-[(3S)-3-methylpiperazin-1-yl]-2-[4-(propan-2-yloxy)phenyl]-4H-chromen-4-one], for which the melting point fell in the range of 128 to 130 °C. Further, the maximal fold induction with Smn protein is ≤ 1.2. Besides, in data set [1], the EC (1.5-fold) lay in the range of 1 to 3 µM.

On to `C[C@@H]1CN(c2ccc3oc(-c4ccccn4)cc(=O)c3c2)CCN1` [Cpd 15, 6-[(3R)-3-methylpiperazin-1-yl]-2-(pyridin-2-yl)-4H-chromen-4-one], for which the melting point was 140 to 142 °C. For the same compound, in the data set with Smn protein, the maximal fold induction lay in the range of 1.5 to 1.65 and the EC (1.5-fold) lay within 3 to 10 µM. Also, the EC (1.5-fold) in data set [1] was in the range of 1 to 3 µM.

Regarding `COc1ccc(-c2cc(=O)c3cc(N4CCNC(C)(C)C4)ccc3o2)cc1OC` [Cpd 27, 2-(3,4-dimethoxyphenyl)-6-(3,3-dimethylpiperazin-1-yl)-4H-chromen-4-one], the melting point was in the range of 108 to 110 °C. Moreover, in the data set with Smn protein, the maximal fold induction was > 1.65 and the EC (1.5-fold) lay within 1 to 3 µM. In addition, the EC (1.5-fold) in data set [1] was 0.3 to 1 µM.

Take `COc1ccc(-c2cc(=O)c3cc(N4CCN[C@@H](C)C4)ccc3o2)cc1OC` [Cpd 31, 2-(3,4-dimethoxyphenyl)-6-[(3S)-3-methylpiperazin-1-yl]-4H-chromen-4-one]: the melting point lay in the range of 172 to 174 °C. Moreover, in the data set with Smn protein, the maximal fold induction was > 1.65 and the EC (1.5-fold) was ≤ 0.3 µM. For the same compound, the EC (1.5-fold) in data set [1] is ≤ 0.1 µM.

As for `CC(C)Oc1ccc(-c2cc(=O)c3cc(N4CCNCC4)ccc3o2)cc1` [Cpd 49, 6-(piperazin-1-yl)-2-[4-(propan-2-yloxy)phenyl]-4H-chromen-4-one], the melting point lay within 126 to 128 °C. Also, in the data set with Smn protein, the maximal fold induction was ≤ 1.2. Besides, the EC (1.5-fold) in data set [1] lay within 1 to 3 µM.

In turn, `C[C@H]1CN(c2ccc3oc(-c4cccc(F)c4)cc(=O)c3c2)CCN1` [Cpd 77, 2-(3-fluorophenyl)-6-[(3S)-3-methylpiperazin-1-yl]-4H-chromen-4-one] displayed a melting point of 170 to 172 °C. For the same compound, in the data set on Smn protein, the maximal fold induction fell in the range of 1.5 to 1.65 and the EC (1.5-fold) is 0.3 to 1 µM. In addition, in data set [1], the EC (1.5-fold) lay within 0.1 to 0.3 µM.

As for `O=c1cc(-c2ccc(OC(F)(F)F)cc2)oc2ccc(N3CCNCC3)cc12` [Cpd 64, 6-(piperazin-1-yl)-2-[4-(trifluoromethoxy)phenyl]-4H-chromen-4-one], the melting point lay within 146 to 148 °C. Also, the maximal fold induction in the data set with Smn protein was ≤ 1.2. In data set [1], the EC (1.5-fold) lay in the range of 0.3 to 1 µM.

What is called melting point is the temperature of the solid-liquid transition.
